Data: patent US20140356452A1, “Therapeutic Uses of Tetrachlorodecaoxygen (TCDO)” (IBT USA INC., priority 2012, published 2014)

Key:
[1] = test system: lipopolysaccharide (LPS) from E coli 055B5; conditions: TCDO 0.2 ml/kg iv twice during the day before iv LPS; without TCDO 346; cited from earlier work
[2] = test system: wounds; conditions: topical; superior to PVP-iodine treatment; cited from earlier work
[3] = test system: hematopoietic stem cells; conditions: mice receiving sublethal doses of irradiation; cited from earlier work
[4] = test system: non-healing wounds; assay: Example 4: topical TCDO versus saline in 271 patients with non-healing wounds; format: in vivo, human
Procedure: TCDO was investigated for its effects on non-healing wounds. In the study, 271 patients with non-healing wounds which included post-operative wounds, venous ulcers, arterial ulcers, post traumatic wounds and decubitus ulcers. The patients received either 5 mL of TCDO or saline twice daily applied by compress or directly to the wound for 21 days. […] Irrespective of wound types, wound surface decreased 2 to 4 times more quickly with TCDO treatment compared to saline. […] Adverse events were reported by 7% and 12% of patients treated with saline and TCDO respectively, the most frequent was slight pain.

[5] = test system: humoral and cellular immune responses; conditions: cited from earlier work
[6] = test system: wounds; conditions: applied topically; cited from earlier work
[7] = test system: monocytes and large granular lymphocytes; conditions: rats, cited from earlier work
[8] = test system: T-lymphoma cell line ACH2; conditions: cited from earlier work
[9] = 4 cycles of 0.5 mL TCDO/kg body weight per day
Procedure: Patients were then given 4 cycles of WF10 with the daily dose ranging from 0.5 mL/kg body weight to 1.5 mL/kg body weight.

[10] = biological target: gp120 envelope glycoprotein of HIV-1 (Human immunodeficiency virus type 1 group M subtype B, UniProt P04578); conditions: pre-incubation with TCDO; cited from earlier work
[11] = test system: monocytes, macrophages and lymphocytes; conditions: in vitro; cited from earlier work
[12] = test system: activated microglia; conditions: Kindy et al.; cited from earlier work
[13] = test system: spinal cord injury (SCI) rat model; assay: Example 3: TCDO in the spinal cord injury rat model (lesion volume, BBB); format: in vivo
Procedure: Tetrachlorodecaoxygen (TCDO) was tested for efficacy in the spinal cord injury (SCI) rat model. In order to determine the efficacy of TCDO, rats were subjected to spinal cord injury and 6 weeks of recovery. Rats were injected intravenously with saline or TCDO solutions. Rats received 1 injection regiment: administered 15 minutes after injury. Animals were injected once daily for 5 days following the injury. Treated rats were examined after 1, 2, 3, 4, 5, and 6 weeks for drug behavioral effect. The animals were examined for changes in lesion volume (LV) and Basso, Beattie and Bresnahan (BBB) locomotor test. […] However, by 7 days, TCDO was not effective in reducing the LV or behavioral deficits.

[14] = test system: E. coli; conditions: phagocytosis assay; cited from earlier work
[15] = SCI rat study: mortality; format: in vivo; conditions: 0.5 ml/kg IV once daily 5 days, 6 weeks
Text: Mortality: There were no deaths in this study.

[16] = test system: HIV; conditions: cited from earlier work
[17] = test system: radiation-induced, chemical induced and metastatic malignant and benign tumors; conditions: cited from earlier work
[18] = test system: granulocytes, PBMCs, LGLs, erythropoiesis; conditions: rats, cited from earlier work
[19] = test system: diabetic foot ulcer; assay: Example 6: randomized controlled trial of TCDO as adjunct in diabetic foot ulcer; format: in vivo, human
Procedure: This randomized controlled trial was undertaken to evaluate the effect of TCDO as an adjunct to the standard treatment of diabetic foot ulcer. A total of 40 participants were randomized into 2 groups of 20. One group underwent standard therapy combined with infusions of TCDO, and 1 underwent standard therapy combined with placebo. The wound severity scores, which vary with the severity of infection and inflammation, necrotic and granulation tissues, and wound depth and area, were assessed weekly for 9 weeks.

[20] = test system: spinal cord injury (SCI) rat model; assay: Spinal cord injury rat model: lesion volume; format: in vivo; conditions: for Percent change in Lesion volume: reduction vs Saline group (group 1), 0.5 ml/kg IV
Procedure: Animals: Female Sprague-Dawley rats (Harlan Sprague-Dawley, Indianapolis, Ind.), weighing 200-225 grams each were given free access to food and water before the experiment. The animals were anesthetized with ketamine (80 mg/kg) and xylazine (10 mg/kg). Brain temperatures were monitored using a rectal thermometer. The animals' body temperature was maintained at 37° C. by using a water jacketed heating pad. Brain temperature was monitored for 1 hour prior to injury to 6 hours following injury and was recorded at 30-minute intervals.
Experimental Groups. The spinal cord injury model utilized in the studies is described in detail (Rabchevsky et al, 2002; J. Neurosci. Res. 68:7). Young adult female Sprague-Dawley rats received a spinal cord contusion using the Precision Scientific Inc. pneumatic impactor. Female animals were used due to the paralysis associated with the injury and ease of voiding the bladder. Prior to surgery, rats were assigned to different treatment groups based on a randomized block design so that on any given surgery day all treatment groups were included. The rats were anesthetized with ketamine (80 mg/kg) and xylazine (10 mg/kg) before laminectomy was performed at the 10th thoracic vertebra (T10). The vertebral column was stabilized with angled clamps on the upper thoracic (T8) and lumber […] levels and the impactor with a tip diameter of 2 mm was delivered at approximately 50 kdynes onto the exposed, intact dura overlying the dorsal spinal cord. The impactor was immediately removed, the wound irrigated with saline and the muscle and skin openings sutured together.
Drug Administration. Compound was administered in the following paradigm: intravenous injection of saline or drug solutions 15 minutes following injury at 0.5 ml/kg (1×10^4, 5×10^4, and 10×10^4 TCDO). Drug was administered once per day starting at the indicated times and continued for 5 days. The saline control group was run in parallel with the drug-treated groups.
Histology. At the end of the study, the animals were killed and the spinal cord fixed in 4% paraformaldehyde. For analysis, 20 μm cryosections were stained for eriochrome cyanine (EC) to differentiate between white matter and cell bodies to calculate the amount of spared tissue through the lesion site. Immunocytochemical analysis was performed on the tissue. Tissue sparing was determined by computed image analysis from 10 evenly spaced sections through the injured T10 segment. The volume of necrotic tissue divided by the total cross-sectional volume is converted to a percentage and subtracted from 100%. Sections were taken for immunocytochemical analysis for macrophage infiltration
Each animal received induction of 5 i.v. injections for a total of 5×0.5 ml/kg of body weight. […]

[21] = test system: macrophages infiltrating a skin blister; conditions: human wound-healing model; cited from earlier work
[22] = test system: autoimmune disease with skin manifestations; conditions: cited from earlier work
[23] = i.v. once daily 5 days, initiated 15 minutes following injury
[24] = after 9 weeks, subgroup analysis, p<0.01 vs placebo
[25] = one patient, four cycles at 0.5 mL/kg body weight
[26] = patients, two cycles at 0.5 mL/kg body weight

Tetrachlorodecaoxygen [TCDO]
LD50 value of LPS after TCDO [1]: 518 mg | Reduction in wound surface [2]: 74.9% | Regeneration of hematopoietic stem cells [3]: stimulated regeneration of hematopoietic stem cells | Wound cleaning and formation of new tissue versus saline ([4]; 271 patients, 5 mL twice daily topically for 21 days): significantly superior to saline | Adverse events, patients reporting ([4]; topical, 21 days, most frequent was slight pain): 12% | Humoral immune response ([5]; Jerne plaque test): increased | Cellular immune response ([5]; footpad swelling test): increased | Proportions of T-helper and T suppressor/cytotoxic cells ([5]; spleen and thymus): altered proportions of T-helper and T suppressor/cytotoxic cells | Effects of cortisone on wounds [6]: reverse the effects of cortisone on wounds | Time for monocyte level to return to normal value after discontinuation ([7]; after 90 days of dosing): 30 days | Blood levels of monocytes and large granular lymphocytes ([7]; daily for 90 days, 0.33 to 2.0 mL/kg body weight, within four days): greater than three times baseline value | Monocyte level elevated over baseline ([7]; sixteen days after discontinuation): approximately 50% | Induction of chromosomally integrated HIV-1 provirus [8]: failed to induce | Hemolysis [9]: no clinically relevant hemolysis | Binding of gp120 of HIV-1 to cells [10]: is blocked | Antigen presentation [11]: decrease antigen presentation | Macrophage TNF-α expression [11]: decrease macrophage tumor necrosis factor (TNF)-α expression | Macrophage-fibroblast cooperation [11]: enhance macrophage-fibroblast cooperation | Oxidative burst in monocytes [11]: stimulate an oxidative burst in monocytes | Phagocytosis [11]: increase phagocytosis | Production of proinflammatory cytokines and superoxide anion [12]: suppresses the production of proinflammatory cytokines and superoxide anion | Reduction of LV or behavioral deficits ([13]; by 7 days): not effective | Decrease in lesion volume (LV) [13, 23]: 49% | Improvement of BBB score [13, 23]: 158% | TCDO dose to which the concentration of maximal ingestion of E. coli corresponds [14]: 0.5 mL/kg-body weight | Mortality [15]: no deaths | Infectivity of HIV particles ([16]; HIV stocks supplemented with TCDO, concentration dependent): markedly decreased the infectivity of HIV particles | Anti-HIV properties ([16]; in vitro): displayed anti-HIV properties | Replication of HIV ([16]; persistently infected lymphocytic and monocytic cell lines, peripheral blood mononuclear cells): did not affect the replication of HIV | Delayed virus spread of HIV in presence of suboptimal concentrations of zidovudine ([16]; simultaneous addition of TCDO): could significantly be blocked | Antitumor effects [17]: displayed direct antitumor effects | Erythropoiesis ([18]; after total body X-irradiation): stimulated erythropoiesis | Proportion of granulocytes, PBMCs and LGLs [18]: increased the proportion of granulocytes, peripheral blood monocytes (PBMCs) and large granular lymphocytes (LGLs) | Wound depth and wound area versus placebo ([19]; after 9 weeks): not statistically significant | Wound severity score ([19]; after 9 weeks, standard therapy plus TCDO infusions, n=20, p<0.05 vs placebo): 1.8±1.9 | Infection and inflammation score [19, 24]: 0.0±0.0 | Necrotic tissue score [19, 24]: 0.0±0.0 | Granulation tissue score ([19]; after 9 weeks, subgroup analysis, p<0.05 vs placebo): 0.1±0.3 | Severe adverse events ([19]; throughout the observation period): No severe adverse events were observed | Lesion volume (mm^3) ([20]; rat SCI, 1 × 10^4 units TCDO, 0.5 ml/kg IV once daily 5 days from 15 min after injury, day 42, mean ± SD): did not show a significant reduction | Percent change in Lesion volume ([20]; 1 × 10^4 units TCDO): 25% | Percent change in Lesion volume ([20]; 5 × 10^4 units TCDO): 50% | Percent change in Lesion volume ([20]; 10 × 10^4 units TCDO): 65% | Number of macrophages infiltrating a skin blister [21]: increased the number of macrophages infiltrating a skin blister | Treatment outcome, HIV associated psoriasis [22, 25]: successfully treated | Treatment outcome, eczema [22, 25]: successfully treated | Treatment outcome, pustular psoriasis ([22]; one patient, two cycles at 0.5 mL/kg body weight): successfully treated | Treatment outcome, chronic actinic dermatitis [22, 26]: successfully treated | Treatment outcome, pemphigus vulgaris [22, 26]: successfully treated
